Source: patent US6150385A, “1,3,4-thiadiazoles useful for the treatment of CMV infections” (Pharmacia & Upjohn Company, priority 1999, dated 2000)

Molecular target: T1, HCMV polymerase (Human cytomegalovirus, UniProt P08546)
T1 construct: made in house; host or cells: SF-9 insect cells infected with recombinant baculovirus
Assay: HCMV polymerase assay (scintillation proximity assay)
Assay type: biochemical
Settings: percentage of inhibition at 25 μM concentration in CMV polymerase assay
Method: The compounds of the present invention are tested in an polymerase assay to show activity described below, which is indicative of a compound's activity and thus of its use as an anti-viral agent.
The HCMV polymerase assay is performed using a scintillation proximity assay (SPA) as described in several references, such as N. D. Cook, et al., Pharmaceutical Manufacturing International, pages 49-53 (1992); K. Takeuchi, Laboratory Practice, September issue (1992); U.S. Pat. No. 4,568,649 (1986); which are incorporated by reference herein. Reactions are performed in 96-well plates. The assay is conducted in 100 μl volume with 5.4 mM HEPES (pH 7.5), 11.7 mM KCl, 4.5 mM MgCl2, 0.36 mg/ml BSA, and 90 nM ^3 H-dTTP. Assays are run with and without CHAPS, (3-[(3-Cholamidopropyl)-dimethylammonio]-1-propanesulfonate) at a final concentration of 2 mM. HCMV is diluted in enzyme dilution buffer containing 50% glycerol, 250 mM NaCl, 10 mM HEPES (pH 7.5), 100 μg/ml BSA, and 0.01% sodium azide. The HCMV polymerase, which is expressed in recombinant baculovirus-infected SF-9 cells and purified according to literature procedures, is added at 10% (or 10 μl) of the final reaction volume, i.e., 100 μl. Compounds are diluted in 50% DMSO and 10 μl are added to each well. Control wells contain an equivalent concentration of DMSO. Unless noted otherwise, reactions are initiated via the addition of 6 nM biotinylated poly(dA)-oligo(dT) template/primer to reaction mixtures containing the enzyme, substrate, and compounds of interest. Plates are incubated in a 25° C. or 37° C. H2 O bath and terminated via the addition of 40 μl/reaction of 0.5 M EDTA (pH 8) per well. Reactions are terminated within the time-frame during which substrate incorporation is linear and varied depending upon the enzyme and conditions used, i.e., 30 min. for HCMV polymerase. Ten μl of streptavidin-SPA beads (20 mg/ml in PBS/10% glycerol) are added following termination of the reaction. Plates are incubated 10 min. at 37° C., then equilibrated to room temperature, and counted on a Packard Topcount.
In TABLE 1, "MS" refers to mass spectral data, "% inhib" refers to percentage of inhibition at 25 μM concentration in CMV polymerase assay.

T1 sequence (P08546 whole entry): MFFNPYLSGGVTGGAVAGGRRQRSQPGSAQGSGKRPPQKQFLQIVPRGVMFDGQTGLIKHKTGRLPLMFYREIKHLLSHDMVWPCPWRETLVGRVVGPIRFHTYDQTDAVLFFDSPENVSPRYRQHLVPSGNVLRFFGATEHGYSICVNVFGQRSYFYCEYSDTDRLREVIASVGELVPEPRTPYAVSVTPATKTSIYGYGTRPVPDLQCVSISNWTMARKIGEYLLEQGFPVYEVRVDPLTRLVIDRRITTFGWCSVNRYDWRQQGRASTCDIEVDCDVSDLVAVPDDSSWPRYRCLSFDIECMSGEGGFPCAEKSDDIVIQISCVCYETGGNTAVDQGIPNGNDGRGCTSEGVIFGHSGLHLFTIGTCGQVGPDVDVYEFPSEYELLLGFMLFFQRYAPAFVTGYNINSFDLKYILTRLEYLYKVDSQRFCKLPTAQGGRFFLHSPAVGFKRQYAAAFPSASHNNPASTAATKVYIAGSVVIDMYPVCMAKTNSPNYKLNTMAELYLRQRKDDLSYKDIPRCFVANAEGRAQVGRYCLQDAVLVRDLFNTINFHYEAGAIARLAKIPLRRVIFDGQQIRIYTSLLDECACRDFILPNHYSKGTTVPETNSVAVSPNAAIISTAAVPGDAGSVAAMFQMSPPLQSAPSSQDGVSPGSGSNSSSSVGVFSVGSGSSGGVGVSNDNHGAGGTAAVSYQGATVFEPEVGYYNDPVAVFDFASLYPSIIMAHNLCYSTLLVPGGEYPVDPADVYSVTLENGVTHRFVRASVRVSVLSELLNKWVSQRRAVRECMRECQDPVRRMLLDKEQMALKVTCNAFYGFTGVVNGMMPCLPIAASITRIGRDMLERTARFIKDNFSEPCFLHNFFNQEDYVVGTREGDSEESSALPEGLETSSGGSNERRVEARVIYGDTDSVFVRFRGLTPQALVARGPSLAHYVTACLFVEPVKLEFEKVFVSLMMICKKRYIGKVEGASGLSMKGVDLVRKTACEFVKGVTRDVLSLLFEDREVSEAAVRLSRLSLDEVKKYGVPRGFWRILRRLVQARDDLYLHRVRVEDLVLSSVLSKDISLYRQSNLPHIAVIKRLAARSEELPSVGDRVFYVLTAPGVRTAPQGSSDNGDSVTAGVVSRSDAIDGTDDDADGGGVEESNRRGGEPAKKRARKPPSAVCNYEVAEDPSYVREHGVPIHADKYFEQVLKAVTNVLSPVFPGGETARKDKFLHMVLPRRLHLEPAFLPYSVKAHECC

Q: Which inhibition at 25 µM does the source give for `CCCCCCCC/C=C/CCCCCCCC(=O)Nc1nnc(NCCCNC2CCCCC2)s1` [compound 1, (E)-N-(5-{[3-(cyclohexylamino)propyl]amino}-1,3,4-thiadiazol-2-yl)-9-octadecenamide] here?
A: The inhibition at 25 µM was 100%.

Q: `O=C(Nc1nnc(NCCCNC2CCCCC2)s1)c1ccc2c(c1)C(=O)OC2=O` [compound 2, N-(5-{[3-(cyclohexylamino)propyl]amino}-1,3,4-thiadiazol-2-yl)-1,3-dioxo-1,3-dihydro-2-benzofuran-5-carboxamide] was tested. Which inhibition at 25 µM did it give?
A: Its inhibition at 25 µM is 100%.

Q: For `O=C(Nc1nnc(NCC2CCCCC2)s1)c1ccc2c(c1)C(=O)OC2=O` [compound 3, N-{5-[(cyclohexylmethyl)amino]-1,3,4-thiadiazol-2-yl}-1,3-dioxo-1,3-dihydro-2-benzofuran-5-carboxamide], which inhibition at 25 µM is on record?
A: The inhibition at 25 µM was 100%.

Q: How did the inhibition at 25 µM turn out when `CCCCCCCCCCCNc1nnc(NC(=O)c2ccc3c(c2)C(=O)OC3=O)s1` [compound 4, 1,3-dioxo-N-[5-(undecylamino)-1,3,4-thiadiazol-2-yl]-1,3-dihydro-2-benzofuran-5-carboxamide] was run?
A: Its inhibition at 25 µM is 100%.

Q: With `CCCCCCCC/C=C/CCCCCCCC(=O)Nc1nnc(NCCC2CCCN2C)s1` (stereo not shown) [compound 5, (E)-N-(5-{[2-(1-methyl-2-pyrrolidinyl)ethyl]amino}-1,3,4-thiadiazol-2-yl)-9-octadecenamide] as the compound, how does the inhibition at 25 µM read?
A: Its inhibition at 25 µM is 99.9%.

Q: `O=C(Nc1nnc(NCCNc2ccccc2)s1)c1ccc2c(c1)C(=O)OC2=O` [compound 6, N-{5-[(2-anilinoethyl)amino]-1,3,4-thiadiazol-2-yl}-1,3-dioxo-1,3-dihydro-2-benzofuran-5-carboxamide] was tested. Which inhibition at 25 µM did it give?
A: The inhibition at 25 µM was 99.9%.

Q: Which inhibition at 25 µM does the source give for `O=C(Nc1nnc(NCc2ccc(F)cc2)s1)c1ccc2c(c1)C(=O)OC2=O` [compound 7, N-{5-[(4-fluorobenzyl)amino]-1,3,4-thiadiazol-2-yl}-1,3-dioxo-1,3-dihydro-2-benzofuran-5-carboxamide] here?
A: Its inhibition at 25 µM is 99.8%.

Q: How did the inhibition at 25 µM turn out when `O=C(Nc1nnc(NCc2cccc3ccccc23)s1)c1ccc2c(c1)C(=O)OC2=O` [compound 8, N-{5-[(1-naphthylmethyl)amino]-1,3,4-thiadiazol-2-yl}-1,3-dioxo-1,3-dihydro-2-benzofuran-5-carboxamide] was run?
A: Its inhibition at 25 µM is 99.8%.

Q: `O=C(Nc1nnc(NCCc2cccs2)s1)c1ccc2c(c1)C(=O)OC2=O` [compound 9, 1,3-dioxo-N-(5-{[2-(2-thienyl)ethyl]amino}-1,3,4-thiadiazol-2-yl)-1,3-dihydro-2-benzofuran-5-carboxamide] was tested. Which inhibition at 25 µM did it give?
A: The inhibition at 25 µM was 99.8%.

Q: With `O=C(Nc1nnc(NCCc2c[nH]c3ccccc23)s1)c1ccc2c(c1)C(=O)OC2=O` [compound 10, N-(5-{[2-(1H-indol-3-yl)ethyl]amino}-1,3,4-thiadiazol-2-yl)-1,3-dioxo-1,3-dihydro-2-benzofuran-5-carboxamide] as the compound, how does the inhibition at 25 µM read?
A: The inhibition at 25 µM was 99.7%.

Q: For `O=C(Nc1nnc(NCCCCc2ccccc2)s1)c1ccc2c(c1)C(=O)OC2=O` [compound 11, 1,3-dioxo-N-{5-[(4-phenylbutyl)amino]-1,3,4-thiadiazol-2-yl}-1,3-dihydro-2-benzofuran-5-carboxamide], which inhibition at 25 µM is on record?
A: Its inhibition at 25 µM is 99.6%.

Q: With `O=C(Nc1nnc(NCc2ccc(Cl)c(Cl)c2)s1)c1ccc2c(c1)C(=O)OC2=O` [compound 12, N-{5-[(3,4-dichlorobenzyl)amino]-1,3,4-thiadiazol-2-yl}-1,3-dioxo-1,3-dihydro-2-benzofuran-5-carboxamide] as the compound, how does the inhibition at 25 µM read?
A: Its inhibition at 25 µM is 99.5%.

Q: `O=C(Nc1nnc(NCCC(c2ccccc2)c2ccccc2)s1)c1ccc2c(c1)C(=O)OC2=O` [compound 13, N-{5-[(3,3-diphenylpropyl)amino]-1,3,4-thiadiazol-2-yl}-1,3-dioxo-1,3-dihydro-2-benzofuran-5-carboxamide] was tested. Which inhibition at 25 µM did it give?
A: The inhibition at 25 µM was 99.3%.

Q: For `CCCCCCCC/C=C/CCCCCCCC(=O)Nc1nnc(NCCCN2CCN(C)CC2)s1` [compound 14, (E)-N-(5-{[3-(4-methylpiperazino)propyl]amino}-1,3,4-thiadiazol-2-yl)-9-octadecenamide], which inhibition at 25 µM is on record?
A: Its inhibition at 25 µM is 99%.

Q: `NS(=O)(=O)c1ccc(CCNc2nnc(NC(=O)c3ccc4c(c3)C(=O)OC4=O)s2)cc1` [compound 15, N-(5-{[4-(aminosulfonyl)phenethyl]amino}-1,3,4-thiadiazol-2-yl)-1,3-dioxo-1,3-dihydro-2-benzofuran-5-carboxamide] was tested. Which inhibition at 25 µM did it give?
A: Its inhibition at 25 µM is 98.8%.

Q: How did the inhibition at 25 µM turn out when `COc1ccc(CNc2nnc(NC(=O)c3ccc4c(c3)C(=O)OC4=O)s2)cc1OC` [compound 16, N-{5-[(3,4-dimethoxybenzyl)amino]-1,3,4-thiadiazol-2-yl}-1,3-dioxo-1,3-dihydro-2-benzofuran-5-carboxamide] was run?
A: The inhibition at 25 µM was 98.7%.

Q: Which inhibition at 25 µM does the source give for `O=C(Nc1nnc(NCC(c2ccccc2)c2ccccc2)s1)c1ccc2c(c1)C(=O)OC2=O` [compound 17, N-{5-[(2,2-diphenylethyl)amino]-1,3,4-thiadiazol-2-yl}-1,3-dioxo-1,3-dihydro-2-benzofuran-5-carboxamide] here?
A: The inhibition at 25 µM was 98.6%.

Q: For `CCCCCCCC/C=C/CCCCCCCC(=O)Nc1nnc(NCc2ccc(S(N)(=O)=O)cc2)s1` [compound 18, (E)-N-(5-{[4-(aminosulfonyl)benzyl]amino}-1,3,4-thiadiazol-2-yl)-9-octadecenamide], which inhibition at 25 µM is on record?
A: Its inhibition at 25 µM is 98.3%.

Q: How did the inhibition at 25 µM turn out when `CCCCCCCC/C=C/CCCCCCCC(=O)Nc1nnc(NCCN2CCCC2)s1` [compound 19, (E)-N-(5-{[2-(1-pyrrolidinyl)ethyl]amino}-1,3,4-thiadiazol-2-yl)-9-octadecenamide] was run?
A: Its inhibition at 25 µM is 97.7%.

Q: With `O=C(Nc1nnc(NCc2ccc3c(c2)OCO3)s1)c1ccc2c(c1)C(=O)OC2=O` [compound 20, N-{5-[(1,3-benzodioxol-5-ylmethyl)amino]-1,3,4-thiadiazol-2-yl}-1,3-dioxo-1,3-dihydro-2-benzofuran-5-carboxamide] as the compound, how does the inhibition at 25 µM read?
A: The inhibition at 25 µM was 97.7%.

Q: For `O=C(Nc1nnc(NC2CCCc3ccccc32)s1)c1ccc2c(c1)C(=O)OC2=O` (stereo not shown) [compound 21, 1,3-dioxo-N-[5-(1,2,3,4-tetrahydro-1-naphthalenylamino)-1,3,4-thiadiazol-2-yl]-1,3-dihydro-2-benzofuran-5-carboxamide], which inhibition at 25 µM is on record?
A: Its inhibition at 25 µM is 97.4%.

Q: How did the inhibition at 25 µM turn out when `COc1ccccc1C(=O)Nc1nnc(NC[C@@H]2CCC3CC2C3(C)C)s1` (stereo partly drawn) [compound 22, N-[5-({[(2R)-6,6-dimethylbicyclo[3.1.1]hept-2-yl]methyl}amino)-1,3,4-thiadiazol-2-yl]-2-methoxybenzamide] was run?
A: The inhibition at 25 µM was 97.2%.

Q: Which inhibition at 25 µM does the source give for `CCCCCCCC/C=C/CCCCCCCC(=O)Nc1nnc(NCCN(C)C)s1` [compound 23, (E)-N-(5-{[2-(dimethylamino)ethyl]amino}-1,3,4-thiadiazol-2-yl)-9-octadecenamide] here?
A: Its inhibition at 25 µM is 97%.

Q: How did the inhibition at 25 µM turn out when `O=C(Nc1nnc(NCCc2ccccc2)s1)c1ccc2c(c1)C(=O)OC2=O` [compound 24, 1,3-dioxo-N-[5-(phenethylamino)-1,3,4-thiadiazol-2-yl]-1,3-dihydro-2-benzofuran-5-carboxamide] was run?
A: The inhibition at 25 µM was 95.6%.

Q: With `CC1(C)C2CC[C@@H](CNc3nnc(NC(=O)c4ccc5c(c4)C(=O)OC5=O)s3)C1C2` (stereo partly drawn) [compound 25, N-[5-({[(2R)-6,6-dimethylbicyclo[3.1.1]hept-2-yl]methyl}amino)-1,3,4-thiadiazol-2-yl]-1,3-dioxo-1,3-dihydro-2-benzofuran-5-carboxamide] as the compound, how does the inhibition at 25 µM read?
A: Its inhibition at 25 µM is 93.9%.

Q: Which inhibition at 25 µM does the source give for `CCOc1ccc2ccccc2c1C(=O)Nc1nnc(NCc2ccc(S(N)(=O)=O)cc2)s1` [compound 26, N-(5-{[4-(aminosulfonyl)benzyl]amino}-1,3,4-thiadiazol-2-yl)-2-ethoxy-1-naphthamide] here?
A: The inhibition at 25 µM was 93.1%.

Q: `CCOc1ccc2ccccc2c1C(=O)Nc1nnc(NCCCNC2CCCCC2)s1` [compound 27, N-(5-{[3-(cyclohexylamino)propyl]amino}-1,3,4-thiadiazol-2-yl)-2-ethoxy-1-naphthamide] was tested. Which inhibition at 25 µM did it give?
A: The inhibition at 25 µM was 92.9%.

Q: For `CCCCCCCC/C=C/CCCCCCCC(=O)Nc1nnc(NC2CC2)s1` [compound 28, (E)-N-[5-(cyclopropylamino)-1,3,4-thiadiazol-2-yl]-9-octadecenamide], which inhibition at 25 µM is on record?
A: The inhibition at 25 µM was 92.6%.

Q: With `O=C(Nc1nnc(NC2CCCCCC2)s1)c1ccc2c(c1)C(=O)OC2=O` [compound 29, N-[5-(cycloheptylamino)-1,3,4-thiadiazol-2-yl]-1,3-dioxo-1,3-dihydro-2-benzofuran-5-carboxamide] as the compound, how does the inhibition at 25 µM read?
A: Its inhibition at 25 µM is 92.4%.

Q: For `NS(=O)(=O)c1ccc(CNc2nnc(NC(=O)c3c(Cl)cccc3Cl)s2)cc1` [compound 30, N-(5-{[4-(aminosulfonyl)benzyl]amino}-1,3,4-thiadiazol-2-yl)-2,6-dichlorobenzamide], which inhibition at 25 µM is on record?
A: The inhibition at 25 µM was 91.8%.

Q: Which inhibition at 25 µM does the source give for `CCCCCCCC/C=C/CCCCCCCC(=O)Nc1nnc(NC2CCCCCC2)s1` [compound 31, (E)-N-[5-(cycloheptylamino)-1,3,4-thiadiazol-2-yl]-9-octadecenamide] here?
A: The inhibition at 25 µM was 91.8%.
